Tests used:
Assay type in all cases: physicochemical
[1] = Variable temperature XRPD study
Protocol: The sample was placed in Anton-Paar TTK 450 chamber at 25° C. The temperature was controlled in-situ through the measurement files: p2853-vt, LRP-1301-39-01.dql, LRP-1301-42-01.dql, LRP-1301-42-02.dql. The sample was heated from 25° C. to 200° C. at 1° C./min. XRPD data were collected from 30° C. to 200° C. every 10° C. Approximately 40 mg of the sample was placed in a Ni-coated sample holder under ambient conditions. The sample was loaded at 25° C.
At 200° C., changes (shifts) in peak position in the high 2-theta region were observed. This may be attributed to the thermal expansion effect.

[2] = Hygroscopicity of the polymorphic form; settings: crystalline anhydrous form
[3] = Dissolution rate comparison of Form A and Form B in size 1 capsules (FIG. 8); settings: 50 mg drug substance/capsule, milled to D50 1-10 μm, compared with Form A
Description: The products is milled to D50 1-10 μm.

[4] = Thermodynamic stability of the polymorphic form
[5] = Solubility profile of the polymorphic form

| SMILES | temperature of conversion to Form B on heating ([1]; heated from 25° C. to 200° C. at 1° C./min) | hygroscopicity [2] | dissolution rate [3] | form by XRPD after heating to 200° C. and cooling to room temperature ([1]; cooled to room temperature (20° C.)) | thermodynamic stability [4] | solubility profile [5] |
| --- | --- | --- | --- | --- | --- | --- |
| Cc1ccc(C(=O)NC2CC2)cc1-n1ncc(C(=O)c2cccc(C#N)c2)c1N [Form A, 3-[5-amino-4-(3-cyanobenzoyl)-pyrazol-1-yl]-N-cyclopropyl-4-methylbenzamide] | above 100 °C | – | – | – | – | – |
| Cc1ccc(C(=O)NC2CC2)cc1-n1ncc(C(=O)c2cccc(C#N)c2)c1N [Form B, 3-[5-amino-4-(3-cyanobenzoyl)-pyrazol-1-yl]-N-cyclopropyl-4-methylbenzamide] | – | non-hygroscopic | higher dissolution rate than Form A | remained unchanged | thermodynamically stable | favourable solubility profile |

Source: US10995071B2, “Method for producing a polymorphic form of 3-[5-amino-4-(3-cyanobenzoyl)-pyrazol-1-yl]-N-cyclopropyl-4-methylbenzamide” (MEREO BIOPHARMA 1 LIMITED, priority 2016, dated 2021)
